We go through 20 compounds from patent US6297247A, “Sulfonamide inhibitors of matrix metalloproteinases” (priority 2000, dated 2001).

Structures can show the parent of a compound that is named as a salt.

In assay [1] the target is T1, SCD (stromelysin-1 catalytic domain) (Homo sapiens, UniProt P08254).
T1 construct: SCD (stromelysin-1 catalytic domain)
The assay can be described thus: Inhibition of stromelysin-1 catalytic domain (SCD), thiopeptolide substrate. The note with it: thiopeptolide substrate Ac-Pro-Leu-Gly-thioester-Leu-Leu-Gly-OEt. The assay is classed as biochemical. How it is done:
IC50 values were determined using a thiopeptolide substrate, Ac-Pro-Leu-Gly-thioester-Leu-Leu-Gly-OEt (Ye Q.-Z., Johnson L. L., Hupe D. J. and Baragi V., "Purification and Characterization of the Human Stromelysin Catalytic Domain Expressed in Escherichia coli", Biochemistry,1992;31:11231-11235).

The target in assay [2] is GCD (recombinant gelatinase A catalytic domain). As to the kind of experiment: Inhibition of recombinant gelatinase A catalytic domain (GCD), thiopeptolide substrate. The format is biochemical. The note with it: thiopeptolide substrate Ac-Pro-Leu-Gly-thioester-Leu-Leu-Gly-OEt.
For the next assay, the system named is bovine nasal cartilage. The note with it: cited from earlier work.
Another assay has as its system pig articular cartilage. The note with it: cited from earlier work.
Assay [3] relates to experimental allergic encephalomyelitis (EAE). The note with it: in vivo; cited from earlier work.

T1 sequence (P08254 100-272 limits assumed): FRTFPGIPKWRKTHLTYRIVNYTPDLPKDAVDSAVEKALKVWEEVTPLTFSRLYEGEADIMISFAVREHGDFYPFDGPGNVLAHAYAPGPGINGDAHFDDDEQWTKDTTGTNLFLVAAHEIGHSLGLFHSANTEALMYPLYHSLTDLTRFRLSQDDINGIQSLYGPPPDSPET

The IC50 is the midpoint of a concentration-inhibition curve. Consider `O=C(O)CNS(=O)(=O)c1ccc(N2CCN(c3ccccc3)CC2)cc1` [Example 10, [4-(4-Phenyl-piperazin-1-yl)-benzenesulfonylamino]-acetic acid], for which the values for the IC50 in assay [1] and in assay [2] were 0.05 µM and 0.5 µM, respectively. On to `O=C(O)C(CCCc1ccccc1)NS(=O)(=O)c1ccc(N2CCC(c3ccccc3)CC2)cc1` (racemic) [Example 9, (±)-5-Phenyl-2-[4-(4-phenyl-piperidin-1-yl)-benzenesulfonylamino]-pentanoic acid], for which the figures for the concentration for half-maximal inhibition (IC50) in assay [1] and in assay [2] were 0.3 µM and 0.4 µM, respectively. As for `O=C(O)[C@H](Cc1c[nH]c2ccccc12)NS(=O)(=O)c1ccc(N2CCC(c3ccccc3)CC2)cc1` [Example 8, (S)-3-(1H-Indol-3-yl)-2-[4-(4-phenyl-piperidin-1-yl)-benzenesulfonylamino]-propionic acid], the IC50 in assay [1] amounted to 0.01 µM; in assay [2], 0.32 µM. On to `O=C(O)CNS(=O)(=O)c1ccc(N2CCC(c3ccccc3)CC2)cc1` [Example 1, [4-(4-Phenyl-piperidin-1-yl)-benzenesulfonylamino]-acetic acid], for which, in assay [2], the IC50 worked out at 0.21 µM. `O=C(O)[C@H](Cc1ccc(OCc2ccccc2)cc1)NS(=O)(=O)c1ccc(N2CCC(c3ccccc3)CC2)cc1` [Example 13, (S)-3-(4-Benzyloxy-phenyl)-2-[4-(4-phenyl-piperidin-1-yl)-benzenesulfonylamino]-propionic acid]: the IC50 came out at 0.19 µM in assay [1] and 5.3 µM in assay [2]. As for `COc1ccc(N2CCN(c3ccc(S(=O)(=O)N[C@@H](Cc4ccccc4)C(=O)O)cc3)CC2)cc1` [Example 18, (S)-2-{4-[-4-(4-Methoxy-phenyl)-piperazin-1-yl]-benzenesulfonylamino}-3-phenyl-propionic acid], the IC50 in assay [2] was found to be 0.033 µM. For “TIMP-1: natural endogenous inhibitors of MMPs (TIMPS)”, the “formation of collagen fragments and proteoglycan fragments” value with bovine nasal cartilage is “prevented the formation of collagen fragments, but not proteoglycan fragments”; with pig articular cartilage, “prevented the formation of collagen fragments, but not proteoglycan fragments”.

As for `O=C(O)[C@@H](Cc1ccccc1)NS(=O)(=O)c1ccc(N2CCC(c3ccccc3)CC2)cc1` [Example 7, (R)-3-Phenyl-2-[4-(4-phenyl-piperidin-1-yl)-benzenesulfonylamino]-propionic acid], the IC50 in assay [1] stood at 0.012 µM; in assay [2] it was 0.12 µM.

For the compound `O=C(O)CCNS(=O)(=O)c1ccc(N2CCC(c3ccccc3)CC2)cc1` [Example 3, 3-[4-(4-Phenyl-piperidin-1-yl)-benzenesulfonylamino]-propionic acid], the figures for the IC50 in assay [1] and in assay [2] were 1.24 µM and 4.8 µM, respectively.

As for `COc1cccc(N2CCN(c3ccc(S(=O)(=O)N[C@@H](Cc4ccccc4)C(=O)O)cc3)CC2)c1` [Example 16, (S)-2-{4-[-4-(3-Methoxy-phenyl)-piperazin-1-yl]-benzenesulfonylamino}-3-phenyl-propionic acid], the 50% inhibitory concentration (IC50) in assay [1] turned out to be 0.062 µM; in assay [2] it was 0.33 µM. As to `CC(C)C[C@@H](NS(=O)(=O)c1ccc(N2CCC(c3ccccc3)CC2)cc1)C(=O)O` [Example 4, (R)-4-Methyl-2-[4-(4-phenyl-piperidin-1-yl)-benzenesulfonylamino]-pentanoic acid], the IC50 was found to be 0.036 µM in assay [1] and 0.93 µM in assay [2]. For `O=C(O)[C@H](Cc1ccccc1)NS(=O)(=O)c1ccc(N2CCC(Cc3ccccc3)CC2)cc1` [Example 12, (S)-2-[4-(4-Benzyl-piperidin-1-yl)-benzenesulfonylamino]-3-phenyl-propionicacid] the same measures were 0.6 µM and 3.2 µM. Turning to `O=C(O)[C@H](Cc1ccc(O)cc1)NS(=O)(=O)c1ccc(N2CCC(c3ccccc3)CC2)cc1` [Example 14, (S)-3-(4-Hydroxy-phenyl)-2-[4-(4-phenyl-piperidin-1-yl)-benzenesulfonylamino]-propionic acid], the values for the IC50 in assay [1] and in assay [2] were 0.015 µM and 0.13 µM, respectively.

`O=C(O)[C@H](Cc1ccccc1)NS(=O)(=O)c1ccc(N2CCC(c3ccccc3)CC2)cc1` [Example 6, (S)-3-Phenyl-2-[4-(4-phenyl-piperidin-1-yl)-benzenesulfonylamino]-propionic acid]: the IC50 in assay [2] was 0.22 µM. For `CC(C)CN(CC(=O)O)S(=O)(=O)c1ccc(N2CCC(c3ccccc3)CC2)cc1` [Example 11, {Isobutyl-[4-(4-phenyl-piperidin-1-yl)-benzenesulfonyl]amino}-acetic acid], the results for the IC50 in assay [1] and in assay [2] were 0.17 µM and 3.3 µM, respectively. Turning to `CNC(=O)[C@H](Cc1c[nH]c2ccccc12)NC(=O)[C@@H](CC(=O)NO)CC(C)C` [GM6001], the “development or clinical expression of EAE” value in assay [3] is “suppressed the development or reversed the clinical expression of experimental allergic encephalomyelitis (EAE) in a dose dependent manner”.

Take `O=C(O)[C@H](Cc1ccccc1)NS(=O)(=O)c1ccc(N2CCN(c3cccc(O)c3)CC2)cc1` [Example 17, (S)-2-{4-[-4-(3-Hydroxy-phenyl)-piperazin-1-yl]-benzenesulfonylamino}-3-phenyl-propionic acid hydrobromide]: the IC50 in assay [1] was determined as 0.077 µM; in assay [2], 0.18 µM.

As to `O=C(CNS(=O)(=O)c1ccc(N2CCC(c3ccccc3)CC2)cc1)NO` [Example 2, N-Hydroxy-2-[4-(4-phenyl-piperidin-1-yl)-benzenesulfonylamino]-acetamide], the IC50 in assay [2] was 0.81 µM. For `CC(C)C[C@H](NS(=O)(=O)c1ccc(N2CCC(c3ccccc3)CC2)cc1)C(=O)O` [Example 5, (S)-4-Methyl-2-[4-(4-phenyl-piperidin-1-yl)-benzenesulfonylamino]-pentanoic acid], the IC50 in assay [1] was 0.011 µM; in assay [2], 0.084 µM. For `O=C(O)[C@H](Cc1ccccc1)NS(=O)(=O)c1ccc(N2CCN(c3ccccc3)CC2)cc1` [Example 15, (S)-3-Phenyl-2-[4-(4-phenyl-piperazin-1-yl)-benzenesulfonylamino]-propionicacid], the IC50 in assay [1] is 0.021 µM; in assay [2], 0.088 µM.
